Entries after “also recorded” stand apart in the source; their conditions may differ. Starred links: 1 amine or outer side, 2 acyl side, 3 side chain; linkers in the order of their positions; H or OH if unused. Non-standard residues stand in square brackets, D forms with d. No end group written: not given here. *: point of attachment. Tyr(125I) = 125I-iodotyrosine, O=C([C@H](Cc1ccc(O[*:3])c([125I])c1)N[*:1])[*:2]; 11‑(ethylthio)undecanoyl = CCSCCCCCCCCCCC(=O)*
What was measured:
wheat germ NMT = assay: in vitro wheat germ NMT myristoylation assay, kinetics with iodinated peptide GNAAS[125I]YRR; format: biochemical
Method: Myristoyl CoA and fatty acid analog CoA were generated by incubation of the fatty acid or analog with CoA, ATP and CoA ligase. This reaction mixture was added to wheat germ NMT and Gly-Asn-Ala-Ala-Ser-[^125 I]Tyr-Arg-Arg in the presence of 0.03% Triton® X-100. Reaction products were characterized by reverse phase HPLC and gamma counting.
The invention is illustrated in greater detail in the following Examples 1 to 15 by the synthesis and testing of representative compounds of the invention as myristoylating enzyme substrates. Accordingly, the invention is first illustrated in Examples 1 to 5 by the chemical synthesis of a sulfur-containing analog of myristic acid, namely 11-(ethylthio)undecanoicacid, CH3 CH2 --S--(CH2)10 COOH, which is then tested in vitro as a wheat germ NMT substrate. Wheat germ NMT is a protein similar to yeast NMT. The purity and chemical identity of the synthesized compound were examined using ^1 H and ^13 C NMR as well as mass spectroscopy. The assay that was used to characterize the substrate specificity of wheat germ NMT measures the rate of attachment of a radiolabelled fatty acid to an unlabelled peptide. The fatty acid analog synthesized was nonradioactive.
The in vitro assay for NMT activity requires the enzymatic generation of fatty acyl CoA. Since the Pseudomonas acyl CoA ligase is quite nonspecific [Shimizo et al., Anal. Biochem. 107, 193-198 (1980)] and is used in excess, it should equally well convert myristic acid and 11-(ethylthio)undecanoic acid to the corresponding CoA esters. It is, therefore, believed that the data represent the relative catalytic efficiency of fatty acyl CoA and analog CoA for wheat germ NMT.
Assays for NMT activity were performed using a procedure detailed previously by Towler and Glaser, Proc. Natl. Acad. Sci. USA 83, 2812-2816 (1986). Briefly, the in vitro assay measures the transfer of radiolabelled fatty acid from acyl CoA to a synthetic peptide substrate. The acylpeptide product is identified by reverse phase HPLC. Time and enzyme dependence were evaluated by varying the reaction time or the enzyme concentration. […] Fatty acid specificity was examined essentially as described by Towler et al., J. Biol. Chem. 262, 1030-1036 (1987), except that the peptide Gly-Ser-Ser-Lys-Ser-Lys-Pro-Lys rather than Gly-Asn-Ala-Ala-Ala-Ala-Arg-Arg was used to compare palmitate and myristate utilization by wheat germ NMT. This was necessary because of the presence of a large, peptide-independent peak which co-eluted with a palmitoyl-Gly-Asn-Ala-Ala-Ala-Ala-Arg-Arg standard. [^3 H]Palmitate and [^3 H]myristate were used in this comparison. [^14 C]fatty acids were used to compare C-10, C-12 and C-14 chain lengths. Fatty acyl CoA concentrations in these assays were determined by a modification of the method of Hosaka et al., Methods Enzymol. 71, 325-333 (1981).
Gly-Asn-Ala-Ala-Ser-[^125 I]Tyr-Arg-Arg as prepared in Example 2, above, was tested in an in vitro myristoylation system which was modified from that used with radiolabelled fatty acids. […] 20-fold more wheat germ NMT (480-fold purified as in Example 3, above) was used for these assays than for assays which employed [^3 H] myristate. […] Double reciprocal plots were generated for the iodinated peptide with both myristic acid and the sulfur analog by altering the peptide concentration in the presence of a constant amount of fatty acid or analog. […] The assays contained 0.03% Triton X-100 to maintain the solubility of the fatty acids.

[1] = C18 reverse phase HPLC elution of acyl peptides (hydrophobicity); format: physicochemical; conditions: for elution earlier than the corresponding myristoyl peptide: acyl-GNAASYRR[125I]; for Elution Time: Table 2, C18 reverse phase HPLC; for elution time of fatty acyl derivative of GNAAAARR: HPLC
Method: The fatty acid analog acyl-peptide eluted 7 minutes earlier than the corresponding myristoyl peptide. The free peptide elutes in the void volume (3-5 minutes).
This difference was evident when the HPLC elution characteristics of fatty acyl peptides were examined. The elution time of a particular acyl-peptide depends strongly on the peptide sequence as well as on the acyl chain attached to that peptide. For example, the elution times of fatty acyl derivatives of GNAAAARR are (in minutes) decanoic acid, 9; dodecanoic acid, 18; myristic acid, 24; and palmitic acid, 30. Elution times for fatty acyl derivatives of GNAAS[^125 I]YRR are 23 and 28 minutes for C12 and C14 fatty acids, respectively (FIG. 2). […] Such a change could alter the biological activity of myristoyl proteins.
(§1) For these Examples, each analog synthesized is characterized by ^1 H and 13C NMR as well as mass spectroscopy. The analogs are then characterized kinetically as NMT substrates. Briefly, fatty acid analogs are converted to their CoA esters with Pseudomonas CoA ligase and incubated with the iodinated peptide GNAAS[^125 I]YRR and a source of NMT. […] The radiolabelled peptide is then used at concentrations which will lead to 50% enzyme saturation (i.e., at its Km) for the determination of fatty acid analog kinetic characteristics. Representative analogs with sulfur or oxygen in the backbone of the fatty acid chain serve as good substrates for NMT in vitro and will compete for incorporation of ^3 H labelled myri-state into yeast proteins in vivo. In addition, these analogs differ markedly in hydrophobicity from myri-state as measured both by C18 reverse phase HPLC elution profiles and by 2-octanol/water partition coefficients. The analog CH3 O (CH2)11 COOH, for example, partitions into water 20 fold better than myristate. It is believed that these analogs will be incorporated into mammalian acylproteins in vivo and that their incorporation into these proteins will drastically alter protein processing or targeting. It is further believed that the incorporation of fatty acid analogs of both myristate and palmitate into ester linked and phosphatidyl inositol glycan linked acylproteins will also dramatically alter their properties. Since many viral proteins and oncogenes are acylated, these compounds represent a new class of potential antiviral and antineoplastic agents.

yeast NMT = molecular target: T1, yeast NMT (Saccharomyces cerevisiae, UniProt P14743); assay: in vitro yeast NMT assay, kinetics of fatty acid analog substrates with iodinated peptide GNAAS[125I]YRR; format: biochemical; conditions: for Peptide Vm / Acyl CoA Vm: Table 2, relative to myristate control 100%; for Peptide Vm: fatty acid analog at 15 μM; for Acyl CoA Vm: peptide at its Km
T1 construct: 11,000-fold purified preparation of yeast NMT; from tissue; host or cells: yeast
T1 sequence (P14743 1-455): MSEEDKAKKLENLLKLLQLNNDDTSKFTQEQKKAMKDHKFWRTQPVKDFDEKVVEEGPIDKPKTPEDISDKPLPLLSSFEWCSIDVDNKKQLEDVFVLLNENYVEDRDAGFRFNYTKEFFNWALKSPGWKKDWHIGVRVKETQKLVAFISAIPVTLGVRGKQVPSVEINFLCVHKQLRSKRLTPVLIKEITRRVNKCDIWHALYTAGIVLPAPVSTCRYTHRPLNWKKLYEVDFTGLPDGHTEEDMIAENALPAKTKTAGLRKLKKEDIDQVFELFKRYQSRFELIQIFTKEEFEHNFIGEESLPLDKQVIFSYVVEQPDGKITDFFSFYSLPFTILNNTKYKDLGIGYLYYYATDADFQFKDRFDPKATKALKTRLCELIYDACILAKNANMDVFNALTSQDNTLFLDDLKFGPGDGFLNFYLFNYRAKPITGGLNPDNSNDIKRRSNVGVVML
From the text: Similar results were obtained using an 11,000-fold purified preparation of yeast NMT [Towler et al., Proc. Natl. Acad. Sci. USA 84, 2708-2712 (1987)].
Other illustrative examples of the oxy- and thio-substituted fatty acid analog substrate compounds of the invention were synthesized in Examples 6 to 14 and tested in Example 15 as substrates for the yeast NMT.
as §1

[2] = molecular target: T2, myristoyl CoA: protein N-myristoyl transferase (NMT) (Saccharomyces cerevisiae, UniProt P14743); assay: substrate activity for myristoylating enzyme (general statement); format: biochemical; conditions: in words
T2 construct: CoA ester made in situ by Pseudomonas CoA ligase
T2 sequence (P14743 1-455): T1 sequence (P14743 1-455)
Method: Purification and use of this enzyme are described, for example, by Towler et al., Proc. Natl. Acad. Sci. USA 84, 2708-2712 (1987); J. Biol. Chem. 262, 1030-1036 (1987).
as §1, with “It is further believed that the incorporation of fatty acid analogs of both myristate and palmitate into ester linked and phosphatidyl inositol glycan linked acylproteins will also dramatically alter their properties. Since many viral proteins and oncogenes are acylated, these compounds represent a new class of potential antiviral and antineoplastic agents.” left out

[3] = C-18 reverse phase HPLC, FIG. 2
[4] = iodinated peptide 40 μM, 0.03% Triton X-100, FIG. 1

| Acyl CoA Vm (yeast NMT) | Elution Time [1] | Molecule | Peptide Vm (yeast NMT) | further results |
| --- | --- | --- | --- | --- |
|  |  | CCSCCCCCCCCCCC(=O)SCCNC(=O)CCNC(=O)[C@H](O)C(C)(C)COP(=O)(O)OP(=O)(O)OC[C@H]1O[C@@H](n2cnc3c(N)ncnc32)[C@H](O)[C@@H]1OP(=O)(O)O |  | substrate quality vs myristoyl CoA (wheat germ NMT; wheat germ NMT): at least as good a substrate for wheat germ NMT as myristoyl CoA itself |
|  |  | 11-(ethylthio)undecanoyl-GNAASYRR[^125 I]: fatty acid analog acyl-peptide ({11‑(ethylthio)undecanoyl}-GNAAS[Tyr(125I)]RR) |  | elution earlier than the corresponding myristoyl peptide [1, 3]: 7 min; elution earlier than the corresponding myristoyl peptide ([1]; C-18 reverse phase HPLC, FIG. 2, listed as 11-(ethylthio)undecanoyl-GNAAS [^125 I]YRR): seven minutes earlier |
| 250% |  | CCCOCCCCCCCCCC(=O)O [CH3 (CH2)2 O(CH2)9 COOH, 10-(Propoxy)decanoic acid] | 150% |  |
| 250% | 18 min | CCCSCCCCCCCCCC(=O)O [CH3 (CH2)2 S(CH2)9 COOH, 10-(Propylthio)decanoic acid] |  |  |
|  | 16 min | CCCCCCCCOCCCCC(=O)O [CH3 (CH2)7 O(CH2)4 COOH, 5-(octyloxy)pentanoic acid] |  |  |
| 160% | 21 min | CCCCCCCCSCCCCC(=O)O [CH3 (CH2)7 S(CH2)4 COOH, 5-(Octylthio)pentanoic acid] |  |  |
| 64% | 12 min | CCOCCCCCCCCCCC(=O)O [CH3 CH2 O(CH2)10 COOH, 11-(Ethoxy)undecanoic acid] | 62% |  |
| 320% | 9 min | C#CCOCCCCCCCCCC(=O)O [HC≡CCH2 O(CH2)9 COOH, 10-(2-Propynoxy)decanoic acid] | 200% |  |
|  |  | CCCCCCCCCC(=O)O [decanoic acid, reference compound] |  | elution time of fatty acyl derivative of GNAAAARR [1]: 9 min |
|  |  | CCCCCCCCCCCC(=O)O [dodecanoic acid, reference compound] |  | elution time of fatty acyl derivative of GNAAS[125I]YRR [1, 3]: 23 min; elution time of fatty acyl derivative of GNAAAARR [1]: 18 min |
|  |  | CCCCCCCCCCCCCCCC(=O)O [palmitic acid, reference compound] |  | elution time of fatty acyl derivative of GNAAAARR [1]: 30 min |
|  |  | Gly-Asn-Ala-Ala-Ser-[^125 I]Tyr-Arg-Arg [free peptide, reference compound] |  | elution of free peptide (void volume) [1, 3]: 3 to 5 min |

| Molecule | Acyl CoA Vm (yeast NMT) | Elution Time [1] | Peptide Vm (yeast NMT) | further results |
| --- | --- | --- | --- | --- |
| CCCCOCCCCCCCCCCC(=O)O [CH3 (CH2)3 O(CH2)10 COOH, 11-(1-Butoxy)undecanoic acid] | 80% | 19 min | 25% | effectiveness as substrate [2]: less effective than the analogs based on C13 -C14 fatty acids |
| CCCCCCCCCCCCCC(=O)O [CH3 (CH2)12 COOH, myristic acid, reference compound] | 100% | 26 min | 100% | elution time of fatty acyl derivative of GNAAS[125I]YRR [1, 3]: 28 min; elution time of fatty acyl derivative of GNAAAARR [1]: 24 min |
| CCSCCCCCCCCCCC(=O)O [CH3 CH2 S(CH2)10 COOH, 11-(Ethylthio)undecanoic acid] | 130% | 18 min | 98% | hydrophobicity ([1]; in words, vs myristic acid): decreases its hydrophobicity; also recorded: significantly different from that of myristic acid; effect on the kinetic characteristics of the peptide substrate (wheat germ NMT; in words, vs myristic acid): did not significantly alter the kinetic characteristics of the peptide substrate; Km (as CoA ester), times higher than for myristate (wheat germ NMT; [4]): 1.5 times; Vmax (as CoA ester), times higher than for myristate (wheat germ NMT; [4]): 3.5 times; apparent maximal velocity, times higher than with myristic acid (wheat germ NMT; peptide substrate varied): 2.3 times; effectiveness as substrate [2]: leaves intact its ability to act as a substrate; Km and Vmax vs C14:0 fatty acid (yeast NMT; 11,000-fold purified yeast NMT): indistinguishable from that of the C14:0 fatty acid |
